The values that follow are results of earlier work, collected in patent US20140072530A1, “TREATMENT OF HIV” (priority 2006, published 2014).

Series [1] deals with whole blood samples stimulated with LPS. Particulars: LPS-stimulated whole blood of HIV patients; concentration-dependent.
Series [2] relates to normal peripheral blood mononuclear cells (PBMC). Particulars: induced by HIV envelope glycoprotein gp 120, normal PBMC.

Regarding “adrenocorticotropic hormone [ACTH (1-39] (SYSMEHFRWGKPVGKKRRPVKVYPNGAEDESAEAFPLEF; Corticotropin; UniProt P01189 138-176, looked up) [ACTH (1-39), Proopiomelanocortin-derived melanocortin peptide]”, in series [1], the “production of IL-1” value is reported as “reduced” and the “production of TNF-α” value is recorded as “reduced”.

As to “ACTH (1-24): Melanocortin peptide, fragment 1-24 of adrenocorticotropic hormone (SYSMEHFRWGKPVGKKRRPVKVYP; Corticotropin; UniProt P01189 138-161, looked up, fragment)”, in series [1], the “production of IL-1” value is recorded as “reduced” and the “production of TNF-α” value is listed as “reduced”.

Consider “α-melanocyte-stimulating hormone [α-MSH (1-13), α-melanocyte-stimulating hormone [α-MSH (1-13)]]”, for which, in series [1], the “production of IL-1” value is “reduced” and the “production of TNF-α” value is “reduced”. In series [2], the “production of IL-1β” value is “inhibit” and the “production of TNF-α” value is listed as “inhibit”.
